What follows are compounds tested on HCV replicon (assay: Replicon based assay of HCV replication inhibition (NPT ELISA)). Conditions: Hepatitis C virus, Huh-7, 72 h, Table I; Huh-7 HCV replicon-containing cells, three days; read-out: Activity.
Format: cell-based, Hepatitis C virus
How it was run: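 Huh-7 cells carrying a bicistronic HCV replicon (neo, EMCV-IRES-driven NS3–NS5B) treated overnight after seeding with usually 6 concentrations, 10 to 0.03 micromolar, for three days at 37° C without G418. Replication read as NPT level by captured ELISA; matched-DMSO wells and interferon alpha as controls.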

Compound | EC50 [µM]
CCCCCOc1ccc(Nc2nc(-c3cccnc3)cs2)cc1 [compound 85, N-(4-(pentyloxy)phenyl)-4-(pyridin-3-yl)thiazol-2-amine] | < 1
FC(F)Oc1ccc(-c2csc(Nc3cccnc3)n2)cc1 [compound 214, N-(4-(4-(difluoromethoxy)phenyl)thiazol-2-yl)pyridin-3-amine] | > 10

Same assay, conditions: Hepatitis C virus, Huh-7, 72 h, Table III; Huh-7 HCV replicon-containing cells, three days; read-out: Activity

Compound | EC50 [µM]
CCCCCCCCN(C)c1ccc(Nc2nc(-c3cnc(OC)nc3)cs2)cc1C(F)(F)F [compound 689, 2-(trifluoromethyl)-N^4-(4-(2-methoxypyrimidin-5-yl)thiazol-2-yl)-N^1-methyl-N-octylbenzene-1,4-diamine] | < 1
CCCCCCCCOc1ccc(Nc2nc(-c3ccc4c(c3)OCO4)cs2)cc1C(F)(F)F [compound 706, 4-(benzo[d][1,3]dioxol-5-yl)-N-(3-(trifluoromethyl)-4-(octyloxy)phenyl)thiazol-2-amine] | < 1
CCCCCCCCOc1ccc(Nc2nc(Cc3ccc(F)cc3)cs2)cc1 [compound 628, 4-(4-fluorobenzyl)-N-(4-(octyloxy)phenyl)thiazol-2-amine] | 1 to 10
CCCCCCCCOc1ccc(Nc2nc3c(s2)CCc2ncccc2-3)cc1 [compound 595, 4,5-dihydro-N-(4-(octyloxy)phenyl)thiazolo[4,5-f]quinolin-2-amine] | 1 to 10

Same assay, conditions: Hepatitis C virus, replicon based assay of HCV replication inhibition; Table II; read-out: Activity

Compound | EC50 [µM]
CCCCCCCOc1ccc(Nc2nc(-c3ccc4[nH]c(=O)oc4c3)cs2)cc1 [compound 395, 6-(2-(4-(heptyloxy)phenylamino)thia-zol-4-yl)benzo[d]exazol-2(3H)-one] | < 1
CCCCCCCCOc1ccc(Nc2nc(-c3ccccn3)cs2)cc1 [compound 385, N-(4-(octyloxy)phenyl)-4-(pyridin-2-yl)thiazol-2-amine] | < 1
CCCCCCCCOc1ccc(Nc2nc(-c3ccc(OCC(=O)O)cc3)cs2)cc1 [compound 462, 2-(4-(2-(4-(octyloxy)phenylamino)thia-zol-4-yl)phenoxy)acetic acid] | < 1
CC(C)COc1ccc(Nc2nc(-c3ccc4c(c3)NC(=O)CO4)cs2)cc1C(F)(F)F [compound 252, 6-(2-(4-isobutoxy-3-(trifluoromethyl)phenyl-amino)thiazol-4-yl)-2H-benzo[b][1,4]oxazin-3(4H)-one] | < 1
CCCCCOc1ccc(Nc2nc(C(=O)Nc3ccncc3)cs2)cc1C(F)(F)F [compound 232, 2-(4-(pentyloxy)-3-(trifluoromethyl)phenyl-amino)-N-(pyridin-4-yl)thiazole-4-carboxamide] | 1 to 10
CCCCCCCCOc1ccc(Nc2nc(-c3ccccc3OC)cs2)cc1 [compound 376, 4-(2-methoxyphenyl)-N-(4-(octyloxy)phenyl)thiazol-2-amine] | < 1
CCCCCCCCOc1ccc(Nc2nc(-c3ccccc3O)cs2)cc1 [compound 373, 2-(2-(4-(octyloxy)phenylamino)thia-zol-4-yl)phenol] | < 1

Same assay, conditions: Hepatitis C virus, replicon based assay of HCV replication inhibition; Table IV; read-out: Activity

Compound | EC50 [µM]
CCCCCCCCOc1ccc(Nc2nc(-c3ccc(OC)nn3)cs2)cc1C(F)(F)F [compound 841, N-(3-(trifluoromethyl)-4-(octyloxy)phenyl)-4-(6-methoxypyridazin-3-yl)thiazol-2-amine] | < 1
COc1cccc(-c2csc(Nc3ccc(OCC4CCCCC4)c(C(F)(F)F)c3)n2)n1 [compound 772, N-(4-(cyclohexylmethoxy)-3-(trifluoromethyl)phenyl)-4-(6-methoxypyridin-2-yl)thiazol-2-amine] | < 1
CCN(CCOc1ccc(Nc2nc(-c3cccnc3)cs2)cc1C(F)(F)F)c1ccccc1 [compound 847] | < 1
CCCCCCCCOc1ccc(Nc2nc(-c3cnc(Cl)c(C)c3)cs2)cc1C(F)(F)F [compound 842, 4-(6-chloro-5-methylpyridin-3-yl)-N-(3-(trifluoromethyl)-4-(octyloxy)phenyl)thiazol-2-amine] | < 1
Cc1sc(Nc2ccc(OCCCc3cccnc3)c(C(F)(F)F)c2)nc1-c1cccnc1 [compound 846, N-(4-(3-(pyridin-3-yl)propoxy)-3-(trifluoromethyl)phenyl)-5-methyl-4-(pyridin-3-yl)thiazol-2-amine] | > 10

From patent publication US8088806B2 (Achillion Pharmaceuticals, Inc., priority 2005, dated 2012)
